In BindingDB's records for doi:10.1021/cb900232a (Stanford University, 2010) one finds IC50 data, which are given here for two compounds.

Common to all, as to assay: Enzyme kinetic assay
For test [1], the target named is Cathepsin B (Mus musculus, UniProt P10605). As to conditions: pH 6.25; 25 °C. As for the experimental part: (§1) IC50 measurements and enzyme kinetics assays were performed on a Spectramax M5 fluorescent plate reader (Molecular Devices).
Test [2] deals with T1, Procathepsin L (Mus musculus, UniProt P06797).
T1 sequence (P06797 whole entry): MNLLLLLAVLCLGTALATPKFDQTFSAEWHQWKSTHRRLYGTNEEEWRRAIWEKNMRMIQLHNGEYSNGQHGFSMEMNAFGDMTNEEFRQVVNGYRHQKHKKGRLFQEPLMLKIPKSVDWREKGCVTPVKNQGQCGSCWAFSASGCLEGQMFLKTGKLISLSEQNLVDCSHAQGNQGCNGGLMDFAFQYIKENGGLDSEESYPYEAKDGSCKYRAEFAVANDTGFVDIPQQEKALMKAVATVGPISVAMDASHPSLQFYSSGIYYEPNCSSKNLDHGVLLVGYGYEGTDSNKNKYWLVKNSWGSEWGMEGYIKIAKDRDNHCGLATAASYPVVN
As to conditions: pH 6.25; 25 °C. As to the method: as §1

The target of test [3] is T2, Caspase-3 (Mus musculus, UniProt P70677).
T2 sequence (P70677 whole entry): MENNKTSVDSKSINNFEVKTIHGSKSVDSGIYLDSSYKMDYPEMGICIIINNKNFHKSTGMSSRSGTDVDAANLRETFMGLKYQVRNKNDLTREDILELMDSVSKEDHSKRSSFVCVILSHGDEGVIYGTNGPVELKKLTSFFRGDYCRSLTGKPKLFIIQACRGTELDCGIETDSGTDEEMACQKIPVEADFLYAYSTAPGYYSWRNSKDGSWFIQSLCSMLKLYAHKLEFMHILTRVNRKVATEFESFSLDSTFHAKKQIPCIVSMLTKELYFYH
As to conditions: pH 7.4; 25 °C. As to the method:
as §1

Test [4] has as its target T3, Legumain (Mus musculus, UniProt O89017).
T3 sequence (O89017 whole entry): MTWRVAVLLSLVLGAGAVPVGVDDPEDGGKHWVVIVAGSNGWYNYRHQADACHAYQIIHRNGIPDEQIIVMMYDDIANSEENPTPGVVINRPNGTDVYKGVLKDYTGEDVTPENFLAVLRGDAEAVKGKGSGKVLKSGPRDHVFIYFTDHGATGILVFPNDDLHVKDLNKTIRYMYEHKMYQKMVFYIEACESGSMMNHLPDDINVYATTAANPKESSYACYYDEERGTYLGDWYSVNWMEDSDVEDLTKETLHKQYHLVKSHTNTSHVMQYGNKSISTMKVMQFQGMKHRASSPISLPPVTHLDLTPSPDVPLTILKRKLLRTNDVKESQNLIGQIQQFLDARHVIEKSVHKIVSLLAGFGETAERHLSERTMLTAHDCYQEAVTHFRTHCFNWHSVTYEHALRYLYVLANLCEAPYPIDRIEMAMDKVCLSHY
As to conditions: pH 5.8; 25 °C. As to the method:
as §1

Sequence of Cathepsin B (P10605 whole entry): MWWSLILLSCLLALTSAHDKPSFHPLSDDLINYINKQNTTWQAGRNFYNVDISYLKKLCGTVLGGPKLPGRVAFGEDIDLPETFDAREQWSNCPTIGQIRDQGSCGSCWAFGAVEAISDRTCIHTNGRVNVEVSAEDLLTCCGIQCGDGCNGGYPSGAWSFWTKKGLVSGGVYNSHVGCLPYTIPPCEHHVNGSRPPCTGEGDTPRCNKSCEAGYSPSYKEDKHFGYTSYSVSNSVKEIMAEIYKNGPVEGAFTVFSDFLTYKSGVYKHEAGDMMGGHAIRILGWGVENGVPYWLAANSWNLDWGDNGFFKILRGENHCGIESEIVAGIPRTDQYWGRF

By IC50 is commonly meant the concentration that gives 50% inhibition. Lower therefore signals greater potency in that assay. Take `CCOC(=O)[C@H]1O[C@@H]1C(=O)N[C@H](C(=O)NCCc1ccc(O)cc1)C(C)CC` (stereo partly specified) [CID644294]: the values for the IC50 in test [1] and in test [2] were 0.78 µM and 2.98 µM, respectively.

On to `CCOC(=O)[C@H]1O[C@@H]1C(=O)N(CC(N)=O)NC(=O)[C@@H]1CCCN1C(C)=O` [LI-1], for which the IC50 was 890 µM in test [3], 390 µM in test [1], 11.5 nM in test [4] and 220 µM in test [2].
